Source: ChEMBL document CHEMBL5512661, “Design, synthesis, and biological evaluation of 3-phenyl substituted pyridine derivatives as potential dual inhibitors of XOR and URAT1” (Eur J Med Chem, 2024)
Activity calls are given as the source filed them. The calls are words filed in the database; no cut-off is given here.

How the values were obtained:
[1] = molecular target: Xanthine dehydrogenase/oxidase (Homo sapiens, UniProt P47989); assay: Inhibition of XOR (unknown origin) using xanthine as substrate measured for 10 mins by spectrophotometry
[2] = molecular target: T1, Solute carrier family 22 member 12 (Homo sapiens, UniProt Q96S37); assay: Inhibition of human URAT1 expressed in HEK293T cells using 6-carboxylic fluorescein substrate at 1000 uM by fluorescence assay; type: cell-based
T1 sequence (Q96S37 whole entry): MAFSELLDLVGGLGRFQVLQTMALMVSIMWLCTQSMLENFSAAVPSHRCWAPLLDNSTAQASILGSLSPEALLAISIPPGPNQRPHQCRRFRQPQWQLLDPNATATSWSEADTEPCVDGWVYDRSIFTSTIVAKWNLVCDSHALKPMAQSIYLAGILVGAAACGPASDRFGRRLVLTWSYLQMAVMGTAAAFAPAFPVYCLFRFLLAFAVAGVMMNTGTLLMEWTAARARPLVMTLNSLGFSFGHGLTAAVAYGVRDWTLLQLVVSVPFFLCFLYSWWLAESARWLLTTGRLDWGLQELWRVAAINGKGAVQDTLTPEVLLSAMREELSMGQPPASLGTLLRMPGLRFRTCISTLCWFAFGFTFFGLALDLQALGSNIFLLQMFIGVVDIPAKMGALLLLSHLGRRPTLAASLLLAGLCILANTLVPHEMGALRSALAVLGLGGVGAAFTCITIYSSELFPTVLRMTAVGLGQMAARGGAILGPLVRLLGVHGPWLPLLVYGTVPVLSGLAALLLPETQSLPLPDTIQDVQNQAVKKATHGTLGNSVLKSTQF

[3] = molecular target: T1, Solute carrier family 22 member 12; assay: Inhibition of human URAT1 expressed in HEK293T cells using 6-carboxylic fluorescein substrate by fluorescence assay; type: cell-based
URAT1 (SLC22A12) = molecular target: T2, URAT1 (SLC22A12) (Homo sapiens, UniProt Q96S37); assay: Inhibition of human URAT1 expressed in HEK293T cells using 6-carboxylic fluorescein substrate at 100 uM by fluorescence assay relative to control; type: cell-based; details: HEK293T cells expressing human URAT1, probe 6-carboxylic fluorescein
T2 sequence (Q96S37 whole entry): T1 sequence (Q96S37 whole entry)

Mus musculus [4] = assay: Hypouricemic effect in potassium oxonate/hypoxanthine-induced acute hyperuricemia ICR mouse model assessed as decrease in serum uric acid level at 5 mg/kg, gavage measured after 3 to 9 hrs of drug administration; type: functional, organism-based; details: time 3-9 hrs
Mus musculus [5] = assay: Hypouricemic effect in potassium oxonate/hypoxanthine-induced acute hyperuricemia ICR mouse model assessed as decrease in serum uric acid level measured after 1 hr drug administration; type: functional, organism-based

Chain of Xanthine dehydrogenase/oxidase (P47989 whole entry): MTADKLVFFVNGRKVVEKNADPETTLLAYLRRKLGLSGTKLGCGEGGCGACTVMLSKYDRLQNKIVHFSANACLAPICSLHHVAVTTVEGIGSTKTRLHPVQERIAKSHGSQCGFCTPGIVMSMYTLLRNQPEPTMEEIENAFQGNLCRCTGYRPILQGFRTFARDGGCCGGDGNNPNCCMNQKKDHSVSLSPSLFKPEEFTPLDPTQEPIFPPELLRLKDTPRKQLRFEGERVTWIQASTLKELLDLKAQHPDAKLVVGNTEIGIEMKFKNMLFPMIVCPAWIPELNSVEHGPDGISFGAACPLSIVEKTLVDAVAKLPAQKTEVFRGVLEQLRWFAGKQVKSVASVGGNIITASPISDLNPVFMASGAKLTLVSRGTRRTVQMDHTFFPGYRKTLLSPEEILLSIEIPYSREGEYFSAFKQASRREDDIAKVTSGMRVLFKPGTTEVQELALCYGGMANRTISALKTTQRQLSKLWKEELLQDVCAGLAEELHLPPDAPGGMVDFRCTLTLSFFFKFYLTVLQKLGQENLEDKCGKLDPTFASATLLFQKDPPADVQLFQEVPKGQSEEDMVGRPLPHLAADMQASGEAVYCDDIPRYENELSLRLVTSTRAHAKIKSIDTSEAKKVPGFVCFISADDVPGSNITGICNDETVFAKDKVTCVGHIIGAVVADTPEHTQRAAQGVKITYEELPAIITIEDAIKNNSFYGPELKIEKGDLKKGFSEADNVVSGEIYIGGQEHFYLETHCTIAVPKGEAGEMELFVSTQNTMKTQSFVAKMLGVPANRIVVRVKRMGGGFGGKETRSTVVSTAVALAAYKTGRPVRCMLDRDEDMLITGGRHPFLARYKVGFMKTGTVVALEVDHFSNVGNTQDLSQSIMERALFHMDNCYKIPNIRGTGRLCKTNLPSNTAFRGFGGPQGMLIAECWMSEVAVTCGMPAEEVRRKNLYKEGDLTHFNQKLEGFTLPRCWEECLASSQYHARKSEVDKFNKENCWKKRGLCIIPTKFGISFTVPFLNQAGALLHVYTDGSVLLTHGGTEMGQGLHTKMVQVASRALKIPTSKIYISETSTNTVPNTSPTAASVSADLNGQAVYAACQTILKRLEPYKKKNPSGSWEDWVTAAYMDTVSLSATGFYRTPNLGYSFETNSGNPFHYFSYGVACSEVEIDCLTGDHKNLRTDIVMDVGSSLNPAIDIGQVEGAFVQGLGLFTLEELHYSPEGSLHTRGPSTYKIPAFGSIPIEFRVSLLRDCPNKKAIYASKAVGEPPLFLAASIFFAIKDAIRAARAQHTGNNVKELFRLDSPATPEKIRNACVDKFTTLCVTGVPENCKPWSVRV

SMILES	IC50 [1]	IC50 [3]	further results
CC(C)NC(=O)c1cncc(-c2ccc(C(=O)O)cc2)c1	0.59 µM		inhibition (INH) [2]: Not Active
CC(C)NC(=O)c1cncc(-c2cccc(C(=O)O)c2)c1	> 100 µM		inhibition (INH) [2]: Not Active
CC(C)NC(=O)c1cncc(-c2ccc(C#N)cc2)c1	75.4 µM		inhibition (INH) [2]: Not Active
CC(C)(C)c1ccc(Nc2cncc(-c3ccc(C(=O)O)c(O)c3)c2)cc1	0.041 µM	70.3 µM	
Cc1ccc(Nc2cncc(-c3ccc(C(=O)O)c(O)c3)c2)cc1Cl	0.043 µM	51.7 µM	
Cc1nc(C)c(-c2csc(Nc3ccc(O)c(C(=O)O)c3)n2)s1	3.95 µM		inhibition at 100 µM (URAT1 (SLC22A12)): 35.5%
CC(=O)c1ccc(-c2cncc(C(=O)NC(C)C)c2)cc1	6.4 µM		inhibition at 100 µM (URAT1 (SLC22A12)): 15.6%
CCc1oc2ccccc2c1C(=O)c1cc(Br)c(O)c(Br)c1			Activity (Mus musculus [4]): Active
CC(C)(C)c1ccc(Oc2cncc(-c3ccc(C(=O)O)c(O)c3)c2)cc1	0.121 µM	124 µM	Activity (Mus musculus [5]): inactive; Activity (Mus musculus [4]): Active
CC(C)NC(=O)c1cncc(-c2ccc(Cl)c(C(=O)O)c2)c1	> 100 µM	> 1000 µM	
CC(C)NC(=O)c1cncc(-c2ccc(F)c(C(=O)O)c2)c1	> 100 µM	> 1000 µM	
O=C(O)c1ccc(-c2cncc(Oc3cccc(Cl)c3)c2)cc1O	0.045 µM	55.9 µM	
CC(C)NC(=O)c1cncc(-c2ccc(O)c(C(=O)O)c2)c1	80 µM	221 µM	
O=C(O)c1ccc(-c2cncc(Oc3ccc(F)cc3)c2)cc1O	0.04 µM	134 µM	

More lines, main results first:

IC50 [1]	IC50 [3]	SMILES	further results
0.008 µM		Cc1nc(-c2ccc(OCC(C)C)c(C#N)c2)sc1C(=O)O [FEBUXOSTAT]	
0.037 µM	547 µM	CC(C)NC(=O)c1cncc(-c2ccc(C(=O)O)c(O)c2)c1	
0.023 µM	56.9 µM	Cc1cccc(Nc2cncc(-c3ccc(C(=O)O)c(O)c3)c2)c1	
0.006 µM	12.9 µM	O=C(O)c1ccc(-c2cncc(Nc3cccc(Cl)c3)c2)cc1O	
0.035 µM	106 µM	Cc1ccc(Oc2cncc(-c3ccc(C(=O)O)c(O)c3)c2)cc1	
0.026 µM	86.2 µM	Cc1cccc(Oc2cncc(-c3ccc(C(=O)O)c(O)c3)c2)c1	
0.019 µM	80.7 µM	O=C(O)c1ccc(-c2cncc(Nc3ccc(Cl)c(Cl)c3)c2)cc1O	
0.026 µM	33.4 µM	O=C(O)c1ccc(-c2cncc(Nc3ccccc3)c2)cc1O	
0.016 µM	36.8 µM	O=C(O)c1ccc(-c2cncc(Nc3ccc(F)c(Cl)c3)c2)cc1O	
0.038 µM	64.6 µM	O=C(O)c1ccc(-c2cncc(Oc3ccc(Cl)cc3)c2)cc1O	
0.013 µM	57.8 µM	O=C(O)c1ccc(-c2cncc(Nc3ccc(Cl)cc3)c2)cc1O	
0.004 µM	43.6 µM	Cc1ccc(Nc2cncc(-c3ccc(C(=O)O)c(O)c3)c2)cc1	
0.021 µM	53.6 µM	Cc1ccc(Nc2cncc(-c3ccc(C(=O)O)c(O)c3)c2)cc1C	
0.036 µM	86.7 µM	O=C(O)c1ccc(-c2cncc(Oc3ccccc3)c2)cc1O	Activity (Mus musculus [5]): inactive; Activity (Mus musculus [4]): Active
0.015 µM	91.2 µM	O=C(O)c1ccc(-c2cncc(Nc3ccc(F)cc3)c2)cc1O	
0.026 µM	31.5 µM	CCc1ccc(Nc2cncc(-c3ccc(C(=O)O)c(O)c3)c2)cc1	
0.016 µM	58.3 µM	COc1ccc(Nc2cncc(-c3ccc(C(=O)O)c(O)c3)c2)cc1	
0.03 µM	30.6 µM	Cc1ccc(Nc2cncc(-c3ccc(C(=O)O)c(O)c3)c2)cc1F	
